According to patent US20260184773A1, “THERAPEUTIC SINGLE DOMAIN ANTIBODY” (priority 2021, published 2026):

How the values were obtained:
[1] = test system: STAT3 in MDA-MB-231 cells; assay: Nuclear tSTAT3/pSTAT3 staining quantified by IFA/confocal; type: cell-based, human; conditions: 6-hour treatment, two-dimensional images, co-occurrence with DAPI
Method: Immunofluorescence and Immunohistochemical Staining: Standard procedures were used for immunohistochemistry and immunofluorescence assay (IFA) staining. Primary antibodies for IF were: Anti-t-STAT3: (Cell Signaling Technology), Anti-p-STAT3: (Cell Signaling Technology), Anti-PD-L1: (Cell Signaling Technology), Anti-VHH Antibody: (Rockland), Alexa Fluor 488-Anti-rabbitIgG: (AFanti-rabIgG, Jackson ImmunoResearch). The blocking solution, 1° and 2° antibody diluent were 1% BP: (1% BSA in PBS). All cell incubations were at 37° C. in a 5% CO2 incubator in media. 4,500 cells/well were seeded in chamber slides allowed to adhere overnight.
IFA: Wells were blocked for >30 minutes, blocking agent removed and primary antibodies were added at the following dilutions prior to overnight incubation at 5° C.: anti-VHH=1:500, anti-t-STAT3=1:300, anti-P-STAT3=1:125, anti-PD-L1=1:300. Wells were washed with PBS and incubated with AFanti-rabIgG (1:300) for >1 hour prior to washing with PBS, coverslipped and examined by fluorescent microscopy. […] Traditional fluorescence microscopy was performed using the Nikon 80i microscope and the appropriate wavelength filter. […]
Confocal microscopy: The confocal images were obtained using the Leica TCS SP8 confocal microscope. Images were quantified using Fiji software. […]

[2] = target: T1, phosphorylated STAT3 (Homo sapiens, UniProt P40763); assay: Immunoprecipitation from cell lysates, Western blot; type: binding; conditions: Dynabeads preloaded with SBT-100, 1 hour at 4° C.
T1 construct: endogenous in cells; host or cells: HeLa + IFN-γ (P-STAT3 lane); also PANC-1, DU145, PC-3 and 4T1 (mouse)
T1 sequence (P40763 2-770 limits assumed): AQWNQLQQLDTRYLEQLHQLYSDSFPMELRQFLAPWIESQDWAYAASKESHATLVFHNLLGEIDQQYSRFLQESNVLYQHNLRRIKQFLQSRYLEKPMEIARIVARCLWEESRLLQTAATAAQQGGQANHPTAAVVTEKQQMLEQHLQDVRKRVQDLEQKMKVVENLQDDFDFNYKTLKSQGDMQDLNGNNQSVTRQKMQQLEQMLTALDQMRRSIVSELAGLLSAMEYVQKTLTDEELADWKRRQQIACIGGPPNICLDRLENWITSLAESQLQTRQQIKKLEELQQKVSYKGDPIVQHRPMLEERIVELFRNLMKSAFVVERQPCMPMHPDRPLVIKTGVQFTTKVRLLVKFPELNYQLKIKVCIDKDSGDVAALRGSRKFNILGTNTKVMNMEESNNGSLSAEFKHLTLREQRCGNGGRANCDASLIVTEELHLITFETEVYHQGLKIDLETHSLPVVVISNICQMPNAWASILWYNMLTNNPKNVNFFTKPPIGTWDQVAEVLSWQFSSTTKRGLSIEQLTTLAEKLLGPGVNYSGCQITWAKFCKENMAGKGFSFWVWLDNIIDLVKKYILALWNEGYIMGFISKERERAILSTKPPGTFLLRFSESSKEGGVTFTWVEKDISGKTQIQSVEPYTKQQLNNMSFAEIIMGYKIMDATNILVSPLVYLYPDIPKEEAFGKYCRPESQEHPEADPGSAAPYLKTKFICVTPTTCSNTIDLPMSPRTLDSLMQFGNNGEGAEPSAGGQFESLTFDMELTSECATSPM
Excerpt: It has been previously shown that SPT-100 can bind unphosphorylated STAT3. […] Bound proteins were separated by SDS-PAGE followed by Western blot analysis using STAT3 (79D7) rabbit mAb #4904.

[3] = test system: ENBOV (Ebola) in HFF; type: cell-based, Ebola virus; conditions: HFF, ENBOV (Ebola)
[4] = test system: Zika in Vero; type: cell-based, Zika virus
[5] = test system: TC83 in HeLa; type: cell-based, Venezuelan Equine Encephalitis (TC83) virus
[6] = test system: TC83 in U87MG; type: cell-based, Venezuelan Equine Encephalitis (TC83) virus
[7] = test system: Zika DAKAR, Senegal in Vero; assay: Viral inhibition; type: cell-based, Zika virus
[8] = test system: Zika DAKAR, Senegal in HFF; assay: Viral inhibition; type: cell-based, Zika virus
[9] = test system: MDA-MB-231 tumors; conditions: 5 mg/kg BID intraperitoneal for 14 days, 7-day observation
[10] = test system: PANC-1 tumors; conditions: PANC-1 xenograft
[11] = rats
[12] = test system: EAU mice
[13] = mouse, in vivo
[14] = test system: MDA-M-453; assay: MTT assay
[15] = test system: MCF-7; assay: MTT assay
[16] = test system: U87; assay: MTT assay
[17] = test system: DU-145; assay: MTT assay

SBT-100: 15 kDa camelid single domain antibody (VHH), SEQ ID NO: 1, binds both STAT3 and KRAS
Original pSTAT3 staining remaining in the nucleus [1]: 70% | Original tSTAT3 staining remaining in the nucleus [1]: 41% | Binding of phosphorylated STAT3 from cell lysates [2]: binding | Comment [3]: Inhibits Ebola virus replication | EC50 [3]: 2560 nM | EC50 [4]: 740 nM | Comment [5]: Inhibits Venezuelan Equine | EC50 [5]: 665 nM | Comment [6]: Inhibits Venezuelan Equine | EC50 [6]: 2530 nM | Comment [7]: Inhibits Zika virus replication | EC50 [7]: 5450 nM | Comment [8]: Inhibits Zika virus replication | EC50 [8]: 6260 nM | Survival and body weight [9]: all the mice survived treatment and maintained their normal weight | Tumor growth [9]: rapid suppression of tumor growth | Deaths and weight loss [10]: No treated mice died or had any weight loss | % Inhibition of Control, Day 12 ([10]; intraperitoneal for 14 days, Day 12): 20.7% | % Inhibition of Control, Day 15 ([10]; intraperitoneal for 14 days, Day 15): 27.29% | % Inhibition of Control, Day 19 ([10]; intraperitoneal for 14 days, Day 19): 18.37% | % Inhibition of Control, Day 22 ([10]; intraperitoneal for 14 days, Day 22 (end of the study)): 19.17% | Serum half-life [11]: 1 h | Optical Coherence Tomography (OCT) ([12]; day 15, optic nerve head and vitreous): reduced recruitment of inflammatory cells | IL-17 secreting pathogenic Th17 cells (intracellular cytokine staining, FACS) ([12]; day 18): significant reduction | EAU clinical scores by fundoscopy ([12]; injected into the eye, day 15 and 18): decreased | Electroretinography (ERG) ([12]; mouse, in vivo): improved visual function | Biological half-life [13]: 12-24 hours | IC50 ([14]; MDA-M-453): 1190 nM | % Inhibition in 3 days with SBT-100 (SEQ ID NO: 1) ug/ml or 6.7 uM) ([14]; MDA-M-453, 3 days, 6.7 uM): 64% (P < 0.001) | IC50 ([15]; MCF-7): 990 nM | % Inhibition in 3 days with SBT-100 (SEQ ID NO: 1) ug/ml or 6.7 uM) ([15]; MCF-7, 3 days, 6.7 uM): 93% (P < 0.001) | IC50 ([16]; U87): 4320 nM | % Inhibition in 3 days with SBT-100 (SEQ ID NO: 1) ug/ml or 6.7 uM) ([16]; U87, 3 days, 6.7 uM): 62% (P < 0.001) | IC50 ([17]; DU-145): 1460 nM | % Inhibition in 3 days with SBT-100 (SEQ ID NO: 1) ug/ml or 6.7 uM) ([17]; DU-145, 3 days, 6.7 uM): 92% (P < 0.001)
